{
  "source": "paper PMC12042115",
  "about": "(mLife, 2025)",
  "key": {"[1]": {"system": "GH200 (scrambled sgRNA control)", "type": "cell-based, M. bovis BCG"}, "[2]": {"experiment": "Hydrolysis in protein‐free buffer (data not published)", "type": "physicochemical", "conditions": "over time"}, "Mtb ClpP1P2": {"molecular_target": "Mtb ClpP1P2 (Mycobacterium tuberculosis, UniProt P9WPC3+P9WPC5)", "sequence (P9WPC3 16-214, one chain of several)": "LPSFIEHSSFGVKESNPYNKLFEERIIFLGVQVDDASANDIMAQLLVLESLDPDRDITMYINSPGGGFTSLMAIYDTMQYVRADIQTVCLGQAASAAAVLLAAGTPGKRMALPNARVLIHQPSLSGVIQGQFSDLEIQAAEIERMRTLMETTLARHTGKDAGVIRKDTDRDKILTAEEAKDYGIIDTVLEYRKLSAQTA", "experiment": "Mtb ClpP1P2 peptidase assay (library screening and IC50 determination)", "type": "biochemical"}, "ClpP1P2": {"system": "ClpP1P2", "experiment": "Jump dilution experiment", "type": "biochemical, Mycobacterium tuberculosis", "conditions": "10 µM, 1 h pre‐incubation, diluted to 100 nM, 4‐h course"}, "M. tuberculosis H37Rv [3]": {"system": "M. tuberculosis H37Rv", "parameters": "method as in PubChem", "conditions": "ref PubChem; cited from earlier work"}, "M. tuberculosis H37Rv [4]": {"system": "M. tuberculosis H37Rv", "experiment": "MIC against Mtb H37Rv", "type": "cell-based, Mycobacterium tuberculosis", "conditions": "Mycobacterium tuberculosis, H37RV"}},
  "note": "Read-outs that look alike come from different tables or passages of the source.",
  "data": [
    {"smiles": "O=C(Oc1ccc(Cl)cc1)c1ccc(N2CCOCC2)c([N+](=O)[O-])c1", "note": "[GDI‐5755]", "values": [
      {"measurement": "MIC shift against GH200 on ATc induction", "setting": "[1]", "result": "did not show shifting"},
      {"measurement": "stability in protein‐free buffer", "setting": "[2]", "result": "susceptible to hydrolysis"},
      {"measurement": "IC50", "setting": "Mtb ClpP1P2; Figure 2B, neat/synthesized compounds, read-out: ClpP1P2 IC50", "result": "~2100", "unit": "nM"},
      {"measurement": "IC50", "setting": "Mtb ClpP1P2; enzyme pre‐incubated with inhibitor before adding substrate, decreased to nearly enzyme concentration, read-out: IC50 after prolonged pre‐incubation", "result": "~130", "unit": "nM"},
      {"measurement": "IC50", "setting": "Mtb ClpP1P2; library stocks, concentration–response, read-out: IC50", "result": 2090, "unit": "nM"},
      {"measurement": "IC50", "setting": "Mtb ClpP1P2; resynthesized compound, screening assay conditions, three replicates, read-out: IC50", "result": "2400 ± 70", "unit": "nM"},
      {"measurement": "recovery of peptidase activity after jump dilution", "setting": "ClpP1P2", "result": "did not show recovery of peptidase activity"},
      {"measurement": "MIC against H37Rv, reported", "setting": "M. tuberculosis H37Rv [3]", "result": 3.16, "unit": "µM"},
      {"measurement": "MIC90", "setting": "M. tuberculosis H37Rv [4]", "result": 100, "unit": "µM"}
    ]}
  ]
}
